This note sets out measurements from PubChem BioAssay (NCI).

Some test systems named below: NCI-H23 lung; SN12C renal; ACHN renal; SNB-19 CNS; SF-295 CNS; EKVX NSCLC; NCI-H226 lung; IGROV1 ovarian; 786-0 renal; A549 NSCLC.
Common to all, as to assay: growth of human tumour cells (NCI), 48 h

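Results reflect a 48-hour exposure of cells in 96-well plates to compound at five concentrations. GI50: concentration for 50% inhibition of growth. TGI: concentration producing complete growth inhibition.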

Consider `NCCOc1ncccc1/C=C1\c2ccccc2-c2ccc([N+](=O)[O-])cc21`, for which the GI50 in the assay on NCI-H23 lung was 0.0479 µM; in the assay with SN12C renal, 0.0284 µM; with ACHN renal it was 0.0235 µM; in the assay with SNB-19 CNS it was 0.0356 µM; in the assay on SF-295 CNS, 0.0246 µM; with EKVX NSCLC, 0.116 µM. Moreover, the GI50 in the assay with NCI-H226 lung is 0.11 µM; in the assay with IGROV1 ovarian, 0.131 µM; with 786-0 renal it was 0.0268 µM; with A549 NSCLC it was less than 0.01 µM. Besides, the TGI in the assay on NCI-H23 lung was determined as 0.413 µM; in the assay with SN12C renal, 0.178 µM; with ACHN renal, 0.119 µM; in the assay on SNB-19 CNS it was 1.04 µM; with SF-295 CNS, 0.161 µM; with EKVX NSCLC it was 0.474 µM. Besides, the TGI in the assay on NCI-H226 lung came to 0.366 µM; in the assay on IGROV1 ovarian, 0.728 µM; in the assay on 786-0 renal, 0.139 µM; in the assay on A549 NSCLC, 0.204 µM.

In the case of `O=C(N/C(=C/c1cccc([N+](=O)[O-])c1)c1nc2ccc(Cl)cc2[nH]1)c1ccccc1`, the TGI in the assay on NCI-H23 lung was 99.5 µM; in the assay on SN12C renal, 87.4 µM; in the assay with ACHN renal, 48.9 µM; with SNB-19 CNS, more than 100 µM; in the assay with SF-295 CNS, more than 100 µM; with EKVX NSCLC, 25.3 µM. The TGI with NCI-H226 lung is more than 100 µM; with IGROV1 ovarian it was 27 µM; in the assay on 786-0 renal it was more than 100 µM; in the assay with A549 NSCLC it was more than 100 µM.

Regarding `COc1cc(-c2cc3ncccc3c3[nH]c(=O)c4cccnc4c23)cc(OC)c1OC`, the GI50 in the assay with NCI-H23 lung was 2.3 µM; in the assay on SN12C renal, 14.3 µM; with ACHN renal, 0.885 µM; in the assay with SNB-19 CNS it was 0.981 µM; in the assay with SF-295 CNS, 0.379 µM; with EKVX NSCLC, 0.818 µM. Besides, the GI50 in the assay on NCI-H226 lung was 23.6 µM; in the assay with IGROV1 ovarian it was 3.61 µM; with 786-0 renal, 0.722 µM; in the assay with A549 NSCLC it was 1.28 µM. Besides, the TGI with NCI-H23 lung is more than 100 µM; with SN12C renal, more than 100 µM; in the assay with ACHN renal, more than 100 µM; in the assay with SNB-19 CNS, more than 100 µM; with SF-295 CNS, 25.4 µM; with EKVX NSCLC, more than 100 µM. Further, the TGI in the assay with NCI-H226 lung, in the assay on IGROV1 ovarian, with 786-0 renal and with A549 NSCLC was more than 100 µM each time.

Regarding `NC(=S)N/N=C1/CN(c2ccc(Cl)c(Cl)c2)CC(=O)C1c1nc2ccccc2s1` (stereo not given), the TGI in the assay on NCI-H23 lung, in the assay on SN12C renal, in the assay on ACHN renal, in the assay on SNB-19 CNS, with SF-295 CNS and in the assay on EKVX NSCLC was more than 100 µM throughout. Further, the TGI with NCI-H226 lung, with IGROV1 ovarian, in the assay on 786-0 renal and in the assay on A549 NSCLC was more than 100 µM each time.

As for `CCOc1ccc(N=Cc2ccnc3ccccc23)cc1`, the TGI was more than 98 µM in the assay with NCI-H23 lung; more than 91.5 µM with SN12C renal; more than 100 µM in the assay on ACHN renal; more than 100 µM with SNB-19 CNS; more than 100 µM in the assay on SF-295 CNS; more than 100 µM in the assay with EKVX NSCLC. Further, the TGI in the assay on NCI-H226 lung, in the assay with IGROV1 ovarian, in the assay with 786-0 renal and in the assay on A549 NSCLC was more than 100 µM throughout.

In the case of `CC(C)=C1CCC(CN2CCOCC2)C1=O` (stereo not given), the TGI is 36.7 µM in the assay on NCI-H23 lung; 16.7 µM with SN12C renal; 23 µM in the assay with ACHN renal; more than 91.9 µM in the assay with SNB-19 CNS; more than 100 µM in the assay on SF-295 CNS; 34.5 µM in the assay on EKVX NSCLC. For the same compound, the TGI came out at 46.1 µM in the assay on NCI-H226 lung, 39.2 µM with IGROV1 ovarian, 11.2 µM in the assay with 786-0 renal and 43.1 µM in the assay with A549 NSCLC.

As to `CC1=C(C#N)C(/C=C(\Cl)c2ccc(F)cc2)C(C#N)=C(C)N1`, the GI50 is more than 100 µM in the assay on NCI-H23 lung; more than 100 µM in the assay on SN12C renal; more than 100 µM with ACHN renal; more than 100 µM with SNB-19 CNS; 53.7 µM in the assay on SF-295 CNS; more than 100 µM in the assay with EKVX NSCLC. Further, the GI50 in the assay on NCI-H226 lung, with IGROV1 ovarian, in the assay with 786-0 renal and in the assay on A549 NSCLC was more than 100 µM each time. In addition, the TGI in the assay with NCI-H23 lung, with SN12C renal, in the assay with ACHN renal, in the assay with SNB-19 CNS, in the assay on SF-295 CNS and in the assay with EKVX NSCLC was more than 100 µM in each case. Further, the TGI in the assay on NCI-H226 lung, in the assay with IGROV1 ovarian, in the assay with 786-0 renal and in the assay on A549 NSCLC was more than 100 µM throughout.

As to `O=C(Oc1ccccc1)C(Br)C(Br)c1ccccc1` (stereo not given), the GI50 was 7.2 µM in the assay on NCI-H23 lung; 1.88 µM in the assay with SN12C renal; 2.06 µM with ACHN renal; 11.9 µM in the assay with SNB-19 CNS; 4.88 µM with SF-295 CNS; 11.9 µM in the assay on EKVX NSCLC. Further, the GI50 was 5 µM in the assay with NCI-H226 lung, 2 µM in the assay on IGROV1 ovarian, 4.59 µM in the assay on 786-0 renal and 18 µM in the assay with A549 NSCLC. Besides, the TGI was determined as 24.3 µM in the assay with NCI-H23 lung; 4.5 µM with SN12C renal; 3.79 µM in the assay on ACHN renal; 24.6 µM with SNB-19 CNS; 18.3 µM in the assay with SF-295 CNS; 24.8 µM in the assay on EKVX NSCLC. The TGI was 18.7 µM with NCI-H226 lung, 3.96 µM with IGROV1 ovarian, 16.8 µM in the assay on 786-0 renal and 38.5 µM in the assay on A549 NSCLC.

Take `O=C(CN(/C=C/C(=O)C(F)(F)F)c1ccccc1)c1ccc(Cl)cc1`: the GI50 in the assay on NCI-H23 lung is 17.1 µM; with SN12C renal, 16 µM; with ACHN renal it was 21.7 µM; in the assay on SNB-19 CNS it was 22 µM; in the assay with SF-295 CNS it was 18.8 µM; in the assay with EKVX NSCLC, 40 µM. Further, the GI50 with NCI-H226 lung was 18.1 µM; with IGROV1 ovarian, 15.5 µM; with 786-0 renal, 15.3 µM; in the assay on A549 NSCLC it was 21.1 µM. In addition, the TGI in the assay on NCI-H23 lung is 35.4 µM; in the assay on SN12C renal it was 29.9 µM; with ACHN renal it was 56.3 µM; with SNB-19 CNS, 51.5 µM; with SF-295 CNS it was 48.2 µM; in the assay with EKVX NSCLC it was more than 100 µM. The TGI in the assay on NCI-H226 lung was determined as 33.1 µM; with IGROV1 ovarian it was 43.8 µM; in the assay with 786-0 renal, 29.1 µM; in the assay with A549 NSCLC, 77.5 µM.
